Assay results from article PMC9822280, “A Rapid and Sensitive Liquid Chromatography-Tandem Mass Spectrometry Bioanalytical Method for the Quantification of Encorafenib and Binimetinib as a First-Line Treatment for Advanced (Unresectable or Metastatic) Melanoma—Application to a Pharmacokinetic Study” (Molecules, 2022).
Where two headings read alike, the source gives them in different places.

Assays:
[1] = Pharmacokinetic study in rats after oral administration of binimetinib and encorafenib; type: in vivo; settings: male, Wistar, rat plasma, oral 3.8 mg/kg binimetinib and 20 mg/kg encorafenib, fasting; for AUC(0-t) / AUC(0-inf) / Cmax / MRT inf / half-life: mean ± SD; for AUC(0-t): read-out: AUC0-t (area under the curve up to the last sampling time); for AUC(0-inf): read-out: AUC0-∞ (area under the curve extrapolated to infinity); for Cmax: read-out: Cmax (maximum plasma concentration); for MRT inf: read-out: MRT0-∞ (mean residence time); for half-life: read-out: t1/2kel (half-life in elimination phase) (converted); for Tmax: read-out: Tmax (time taken to reach the maximum plasma concentration)
Procedure: The newly developed and validated LC-MS/MS assay was effectively applied to evaluate BNB and ENF in rat plasma for a pharmacokinetic study after oral administration of 3.8 mg/kg BNB and 20 mg/kg ENF for four healthy male Wistar rats under fasting conditions. […] The values acquired in the current investigation for BNB for t1/2kel and Cl/F parameters are consistent with in vivo BNB PK studies. Furthermore, the Tmax parameter for BNB is similar to that represented in a recently published paper.
Four healthy male Wistar rats (220–250 g) were brought from the Animal Care Center of King Saud University (Saudia Arabia). All experimental procedures were reviewed in accordance with the guidelines of King Saud University Institutional Research Ethics Committee (REC) with an ethics reference number (SE-19–109). Rats were acclimatized for 7 days to laboratory environments before the experiment was directed. Diet was prohibited for 12 h before the experiment, but the water was freely available. The dose of drugs was determined according to the body surface area employing the below-mentioned formula [22]. Human dose (mg/kg) = Animal dose (mg/kg) × animal Km/Human Km
Km is a factor used in dose conversion. It is a ratio of average body weight (kg) and body surface area (m^2). Km values for the rat and human are 6 and 37, respectively. Human dose for BNB and ENF was considered as 90 and 450 mg, respectively.
Blood samples (300 μL) were collected into heparinized 1.5 mL polythene tubes containing ethylenediamine tetraacetic acid dipotassium (EDTA K2) (anticoagulant) before drug administration and at 0.15, 0.5, 1, 2, 4, 6, 8, 12, 18, and 24 h after oral administration of binimetinib (3.8 mg/kg) and encorafenib (20 mg/kg). In the current study, both drugs were dissolved in 1% DMSO/saline. The samples were directly centrifuged at 3500 rpm for 10 min at 4 °C. The plasma obtained was stored at −80 °C until analysis. The same method of extraction described under calibration standards preparation (2.4.) was used for sample preparation. The PK parameters of BNB and ENF such as Cmax, Tmax, t1/2kel, AUC0–24, and AUC0–∞ were calculated by fitting the data to a non-compartmental analysis (NCA) model with PK Solver Add-In software.

[2] = Stability of binimetinib and encorafenib in rat plasma under different storage conditions; type: in vitro ADME; settings: for recovery at 24 h, 2400 ng/mL / recovery at 2400 ng/mL / recovery at 30 days, 2400 ng/mL: HQC 2400 ng/mL; for recovery at 2400 ng/mL / recovery at 1.5 ng/mL / recovery at 1800 ng/mL: n 3, read-out: Freeze and Thaw Stability at −80 °C (3 Cycles), Recovery (%); for recovery at 30 days, 2400 ng/mL / recovery at 30 days, 1.5 ng/mL / recovery at 30 days, 1800 ng/mL: n 3, read-out: Long Term Stability at −80 °C (30 Days), Recovery (%); for recovery at 24 h, 1.5 ng/mL / recovery at 1.5 ng/mL / recovery at 30 days, 1.5 ng/mL: LQC 1.5 ng/mL; for recovery at 24 h, 1800 ng/mL / recovery at 1800 ng/mL / recovery at 30 days, 1800 ng/mL: MQC 1800 ng/mL
Procedure: An important process of bioanalytical method validation is stability assessment. Stability of BNB and ENF was studied throughout the analysis of three QC samples (LQC, MQC and HQC) of each drug after the application of the different storage conditions. The different parameters investigated include short-term stability at room temperature for 24 h, autosampler stability at 10 °C for 24 h, three freeze and thaw cycles after storing at −80 °C, and long-term stability at −80 °C for 30 days. The results of stability experiments were satisfactory and complied with the accuracy criteria of ±15% of its theoretical concentration.
The stability of ENF and BNB was assessed after exposing the QC samples at LQC, MQC, and HQC to different storage conditions (temperature and time). The applied conditions include short-term stability at room temperature for 24 h in an autosampler for 24 h at 10 °C. Long-term stability was assessed after storing QCs for 30 days at −80 °C. Freeze and thaw stability were evaluated after three freezing and thawing cycles and compared with freshly prepared QCs. Moreover, the stock solution stability for ENF and BNB and IS was studied at a temperature of 5 ± 2 °C. All sample accuracies should be ± 15% to be considered stable.

[3] = n 3, read-out: Autosampler Stability at 10 °C (24 h), Recovery (%)
[4] = n 3, read-out: Short Term Stability at Room Temperature (24 h), Recovery (%)

AUC(0-t) [1] [ng·h/mL]	AUC(0-inf) [1] [ng·h/mL]	Cmax [1] [ng/mL]	MRT inf [1] [h]	half-life [1] [h]	Tmax [1] [h]	recovery at 24 h, 2400 ng/mL [2, 3] [%]	recovery at 2400 ng/mL [2] [%]	recovery at 30 days, 2400 ng/mL [2] [%]	recovery at 24 h, 2400 ng/mL [2, 4] [%]	recovery at 24 h, 1.5 ng/mL [2, 3] [%]	recovery at 1.5 ng/mL [2] [%]	recovery at 30 days, 1.5 ng/mL [2] [%]	recovery at 24 h, 1.5 ng/mL [2, 4] [%]	recovery at 24 h, 1800 ng/mL [2, 3] [%]	recovery at 1800 ng/mL [2] [%]	recovery at 30 days, 1800 ng/mL [2] [%]	recovery at 24 h, 1800 ng/mL [2, 4] [%]	SMILES
12400 ± 1860	18200 ± 1310	3430 ± 460	4.5 ± 0.28	3.39 ± 0.43	1	95.4	95.2	94.8	93.4	97.3	104	95.5	96.2	104	104	104	103	Cn1cnc2c(F)c(Nc3ccc(Br)cc3F)c(C(=O)NOCCO)cc21 [Binimetinib, binimetinib]
30300 ± 3010	36500 ± 3920	16400 ± 1470	3.23 ± 0.4	2.48 ± 0.24	1	92.4	96.5	94.6	94.5	96.6	99.5	97.5	95.2	99.8	96.8	102	103	COC(=O)N[C@@H](C)CNc1nccc(-c2cn(C(C)C)nc2-c2cc(Cl)cc(NS(C)(=O)=O)c2F)n1 [Encorafenib, encorafenib]
